# Results from US20160304957A1, “TREATMENT AND MODULATION OF GENE EXPRESSION AND SKIN AGING” (DSM NUTRITIONAL PRODUCTS LTD., priority 2006, published 2016).
# Tested on: HaCaT human keratinocytes
# Assay: Affymetrix GeneChip microarray, transcriptional response to β-carotene and/or UVA
# Type: cell-based
# Procedure: The cell culture experiments were carried out as described. Briefly, a subclone of passage 65 HaCaT keratinocytes, selected for differentiation capacity, was used at passages 16 to 23 after subcloning. 2×10^5 cells were seeded per 60 millimeter dish. Starting the following day, the cells were pretreated for 2 days with β-carotene at 1.5 μM, a typical concentration in human plasma after moderate dietary supplementation)
# β-carotene-containing medium was prepared as follows. Fresh all-E-β-carotene (DSM Nutritional Products, Kaiseraugst, Switzerland) stock solution in THF (containing 0.025% BHT; Fluka Chemie A G, Switzerland) was diluted 1:2 with ethanol and added to cell culture medium to a final concentration of 1.5 μM β-carotene. The solvent concentration in the medium was 0.5% for all treatments. β-carotene-containing medium was prepared fresh for the daily medium changes.
# On day 3 of the experiment, the cells were irradiated with a Hönle sun lamp Sol 500 (270 kJ/m^2; Dr. Hönle, Germany).
# Five independent, factorially designed cell irradiation experiments were analyzed by microarray hybridization. For each experiment, one chip was hybridized per treatment condition. GeneChip® analysis was done as described in [132], which is incorporated by reference, as if recited in full herein. Gene regulation by β-carotene and/or UVA was calculated relative to placebo.
# Changes in gene expression were included in further analysis only if the change factor was […], and if unpaired t-tests yielded p values≦0.05. Upregulations by a […] are labeled bold, downregulations by a change factor of […] are labeled bold italics. (Table 1) To identify the pathways affected by the treatments functional information on the genes was retrieved from public literature databases.
smiles,measurement,setting,value
"CC1=C(/C=C/C(C)=C/C=C/C(C)=C/C=C/C=C(C)/C=C/C=C(C)/C=C/C2=C(C)CCCC2(C)C)C(C)(C)CCC1 [β-carotene, All-E-β-carotene]",NCF2; p67-phox; neutrophil oxidase factor (M32011) change factor,UVA and β-carotene 1.5 μM,−0.16
same,NF-κB subunit (S78771) change factor,UVA and β-carotene 1.5 μM,0.56
same,NF-κB subunit (X61498) change factor,UVA and β-carotene 1.5 μM,0.7
same,NFκB; p50 (S76638) change factor,UVA and β-carotene 1.5 μM,0.55
same,NOL1; p120 nucleolar antigen (X55504) change factor,UVA and β-carotene 1.5 μM,0.94
same,NOTCH3 (U97669) change factor,UVA and β-carotene 1.5 μM,−1.37
same,NOV (X96584) change factor,UVA and β-carotene 1.5 μM,0.72
same,NOXA (D90070) change factor,UVA and β-carotene 1.5 μM,0.74
same,NRF1 (L24123) change factor,UVA and β-carotene 1.5 μM,−0.65
same,"NRF2, subunit beta 1 (U13045) change factor",UVA and β-carotene 1.5 μM,−0.11
same,OSR1; oxidative-stress responsive 1 (AB017642) change factor,UVA and β-carotene 1.5 μM,0.59
same,PAR-1; thrombin receptor (M62424) change factor,UVA and β-carotene 1.5 μM,−0.05
same,PAR-2; proteinase activated receptor-2 (U34038) change factor,UVA and β-carotene 1.5 μM,1.91
same,"PAR-2; proteinase activated receptor-2 (U34038, second entry) change factor",UVA and β-carotene 1.5 μM,1.34
same,PAR-2; proteinase activated receptor-2 (U67058) change factor,UVA and β-carotene 1.5 μM,3.32
same,PAR-4; protease-activated receptor 4 (AF055917) change factor,UVA and β-carotene 1.5 μM,−0.57
same,RAIDD; death adaptor molecule (U79115) change factor,UVA and β-carotene 1.5 μM,−0.66
same,RB1 (L49229) change factor,UVA and β-carotene 1.5 μM,−1.13
same,RB2/p130 (X74594) change factor,UVA and β-carotene 1.5 μM,−0.85
same,RETSDR1; retinal short-chain dehydrogenase/reductase (AF061741) change factor,UVA and β-carotene 1.5 μM,−0.06
same,RPA; replication protein A 14 kda subunit (rpa) (L07493) change factor,UVA and β-carotene 1.5 μM,−0.52
same,RXRα (U66306) change factor,UVA and β-carotene 1.5 μM,−0.61
same,RXRα (X52773) change factor,UVA and β-carotene 1.5 μM,−0.57
same,Requiem (AF001433) change factor,UVA and β-carotene 1.5 μM,0.32
same,SMAD 1 (U59423) change factor,UVA and β-carotene 1.5 μM,−0.57
same,SMAD3 (U68019) change factor,UVA and β-carotene 1.5 μM,0.01
same,"SMAD3 (U68019, second entry) change factor",UVA and β-carotene 1.5 μM,−0.09
same,SMAD4 (U44378) change factor,UVA and β-carotene 1.5 μM,−0.67
same,SMAD5 (U59913) change factor,UVA and β-carotene 1.5 μM,−0.84
same,SMAD6 (AF035528) change factor,UVA and β-carotene 1.5 μM,−24.2
same,SMAD7 (AF010193) change factor,UVA and β-carotene 1.5 μM,−0.63
same,SMRT (U37146) change factor,UVA and β-carotene 1.5 μM,−1.22
same,STK15; BTAK (AF011468) change factor,UVA and β-carotene 1.5 μM,−1.85
same,TDAG51; PQ-rich protein; PHLDA1 (Z50194) change factor,UVA and β-carotene 1.5 μM,6.19
same,TGFβ; transforming growth factor β (X02812) change factor,UVA and β-carotene 1.5 μM,0.46
same,TIAR; nucleolysin tiar (M96954) change factor,UVA and β-carotene 1.5 μM,−0.08
same,"TIEG, EGRα (AF050110) change factor",UVA and β-carotene 1.5 μM,−0.11
same,TLR3; toll-like receptor 3 (U88879) change factor,UVA and β-carotene 1.5 μM,−0.91
same,TOP2; topoisomerase II (J04088) change factor,UVA and β-carotene 1.5 μM,−0.86
same,TRADD; TNF receptor-1 associated protein (L41690) change factor,UVA and β-carotene 1.5 μM,−0.85
same,TRAIL; TNF-related apoptosis inducing ligand (U37518) change factor,UVA and β-carotene 1.5 μM,−2.66
same,TRIP14; ‘2-5’ oligoadenylate synthetase (AJ225089) change factor,UVA and β-carotene 1.5 μM,0.67
same,TRIP (U77845) change factor,UVA and β-carotene 1.5 μM,−1.35
same,TSSC3 (AF035444) change factor,UVA and β-carotene 1.5 μM,0.7
same,TSSC3/IPL (AF001294) change factor,UVA and β-carotene 1.5 μM,1.02
same,VEGF (AF022375) change factor,UVA and β-carotene 1.5 μM,0.78
same,VEGF (AF024710) change factor,UVA and β-carotene 1.5 μM,1.86
same,VEGF (M63978) change factor,UVA and β-carotene 1.5 μM,1.09
same,VEGFR2; VEGF receptor 2; KDR; FLK-1kdr/flk-1 (AF035121) change factor,UVA and β-carotene 1.5 μM,−0.28
same,WEE1 (X62048) change factor,UVA and β-carotene 1.5 μM,0.05
same,WNT5A (I20861) change factor,UVA and β-carotene 1.5 μM,−2.22
same,"WNT5A (I20861, second entry) change factor",UVA and β-carotene 1.5 μM,−3.34
same,XRCC4 (U40622) change factor,UVA and β-carotene 1.5 μM,−0.01
same,bFGF; basic fibroblast growth factor; FGF2 (M27968) change factor,UVA and β-carotene 1.5 μM,0.82
same,bilirubin udp-glucuronosyltransferase isozyme 2 (M57951) change factor,UVA and β-carotene 1.5 μM,−0.66
same,bullous pemphigoid autoantigen bp180 (M91669) change factor,UVA and β-carotene 1.5 μM,−0.57
same,c-myc (V00568) change factor,UVA and β-carotene 1.5 μM,3.22
same,"c-myc (V00568, second entry) change factor",UVA and β-carotene 1.5 μM,2.45
same,c-myc binding protein (mbp-1) (M55914) change factor,UVA and β-carotene 1.5 μM,0.54
same,"caspase 2, ICH-1S (U13022) change factor",UVA and β-carotene 1.5 μM,−0.62
same,caspase 7 (U67319) change factor,UVA and β-carotene 1.5 μM,0.31
same,ceruloplasmin (ferroxidase) (M13699) change factor,UVA and β-carotene 1.5 μM,1
same,"collagen type IV, α-2 (COL4A2) (X05610) change factor",UVA and β-carotene 1.5 μM,−0.98
same,"collagen type IV, α-5 (COL4A5) (M58526) change factor",UVA and β-carotene 1.5 μM,−1.16
same,"collagen type IV, α-6 (COL4A6) (D21337) change factor",UVA and β-carotene 1.5 μM,−0.71
same,"collagen type VII, α-1 (COL7A1) (L02870) change factor",UVA and β-carotene 1.5 μM,−0.83
same,connexin 31 (AF099730) change factor,UVA and β-carotene 1.5 μM,2.3
same,connexin 45 (U03493) change factor,UVA and β-carotene 1.5 μM,0.26
same,coproporphyrinogen oxidase (D16611) change factor,UVA and β-carotene 1.5 μM,−0.7
same,cyclin E2 (AF091433) change factor,UVA and β-carotene 1.5 μM,0.26
same,cyclin E (M73812) change factor,UVA and β-carotene 1.5 μM,1.75
same,desmocollin type 4 (D17427) change factor,UVA and β-carotene 1.5 μM,−1.71
same,ferritin heavy chain (L20941) change factor,UVA and β-carotene 1.5 μM,0.59
same,frizzled-2 (I37882) change factor,UVA and β-carotene 1.5 μM,−1.38
same,frizzled-6 (AB012911) change factor,UVA and β-carotene 1.5 μM,−1.16
same,haemochromatosis protein (hla-h) (U60319) change factor,UVA and β-carotene 1.5 μM,−0.61
same,hsp40; heat shock protein 40 (U40992) change factor,UVA and β-carotene 1.5 μM,−0.07
same,integrin α6 (X53586) change factor,UVA and β-carotene 1.5 μM,−0.76
same,integrin α6b (S66213) change factor,UVA and β-carotene 1.5 μM,−0.46
same,"integrin α6b (S66213, second entry) change factor",UVA and β-carotene 1.5 μM,−0.73
same,jagged2 (jag2) (AF029778) change factor,UVA and β-carotene 1.5 μM,−0.67
same,keratin 2e (KRT2E); Keratin 2A (AF019084) change factor,UVA and β-carotene 1.5 μM,−0.69
same,keratin 5 (M21389) change factor,UVA and β-carotene 1.5 μM,0.81
same,keratin 15 (J00124) change factor,UVA and β-carotene 1.5 μM,0.96
same,keratin 16 (M28439) change factor,UVA and β-carotene 1.5 μM,−0.38
same,keratin 17 (Z19574) change factor,UVA and β-carotene 1.5 μM,0.6
same,mKI67a mrna (long type) for antigen of monoclonal antibody KI-67 (X65550) change factor,UVA and β-carotene 1.5 μM,−0.87
same,"mKI67a mrna (long type) for antigen of monoclonal antibody KI-67 (X65550, second entry) change factor",UVA and β-carotene 1.5 μM,−1.59
same,ornithine decarboxylase (M33764) change factor,UVA and β-carotene 1.5 μM,0.57
same,ornithine decarboxylase (X16277) change factor,UVA and β-carotene 1.5 μM,0.37
same,p21; wild-type p53 activated fragment-1 (WAF1) (U03106) change factor,UVA and β-carotene 1.5 μM,0.21
same,p33; ING1b (AB024401) change factor,UVA and β-carotene 1.5 μM,0.64
same,p160ROCK (U43195) change factor,UVA and β-carotene 1.5 μM,−0.55
same,protoporphyrinogen oxidase (D38537) change factor,UVA and β-carotene 1.5 μM,−0.54
same,rTS α (X67098) change factor,UVA and β-carotene 1.5 μM,−0.47
same,serpinB1 (M93056) change factor,UVA and β-carotene 1.5 μM,0.57
same,stimulator of Fe transport (AF020761) change factor,UVA and β-carotene 1.5 μM,1.03
same,thioredoxin reductase (X91247) change factor,UVA and β-carotene 1.5 μM,1.48
same,thymidylate synthase (X02308) change factor,UVA and β-carotene 1.5 μM,−0.56
same,transferrin receptor (X01060) change factor,UVA and β-carotene 1.5 μM,0.91
same,uroporphyrinogen III synthase (J03824) change factor,UVA and β-carotene 1.5 μM,−0.61
same,α topoisomerase truncated-form (L47276) change factor,UVA and β-carotene 1.5 μM,−0.81
same,reduction of UVA induction of MMP-10,"β-carotene 1.5 μM, 5 hours after UVA",30%
